Reference: patent US20230203043A1, “NOVEL IMIDAZOPYRAZINE DERIVATIVES” (Hoffmann-La Roche Inc., priority 2020, published 2023)

System: Acinetobacter baumannii ATCC17961
Assay: Antimicrobial susceptibility testing: 90% growth inhibitory concentration (IC90) determination in Iso-Sensitest broth, OD600 growth
Format: cell-based
Conditions: Acinetobacter baumannii, ATCC17961, 16 h, strain ATCC 17961, OD600 growth over 16 h, read-out: A. baumannii ATCC 17961 IC90
Procedure: Antimicrobial Susceptibility Testing:
90% Growth Inhibitory Concentration (IC90) Determination
The in vitro antimicrobial activity of the compounds was determined according to the following procedure:
The assay used a 10-points Iso-Sensitest broth medium to measure quantitatively the in vitro activity of the compounds against Acinetobacter baumannii ATCC17961 or ATCC17968.
Stock compounds in DMSO were serially twofold diluted (e.g. range from 50 to 0.097 μM final concentration) in 384 wells microtiter plates and inoculated with 49 μl the bacterial suspension in Iso-Sensitest medium to have a final cell concentration of ˜5×10^(5) CFU/ml in a final volume/well of 50 ul/well. Microtiter plates were incubated at 35±2° C.
Bacterial cell growth was determined with the measurement of optical density at λ=600 nm each 20 minutes over a time course of 16 h. Growth inhibition was calculated during the logarithmic growth of the bacterial cells with determination of the concentration inhibiting 50% (IC50) and 90% (IC90) of the growth.
Table 7 provides the 90% growth inhibitory concentrations (IC90) in micromoles per liter of the compounds of present invention obtained against the strain Acinetobacter baumannii ATCC17961 and/or ATCC17968.

Structure (SMILES) | IC90
C#CCn1cc(-c2cnc3c(Nc4ccc(C(=O)N5CCC(CN)CC5)c(CC)c4)nccn23)c(C(F)(F)F)n1 [Example 46, [4-(aminomethyl)piperidin-1-yl]-[2-ethyl-4-[[3-[1-prop-2-ynyl-3-(trifluoromethyl)pyrazol-4-yl]imidazo[1,2-a]pyrazin-8-yl]amino]phenyl] methanone] | 93 nM
Cc1cc(Nc2nccn3c(-c4cn(CC(F)F)nc4C(F)(F)F)cnc23)cc(F)c1C(=O)NCCOCCN [Example 49, N-[2-(2-aminoethoxy)ethyl]-4-[[3-[1-(2,2-difluoroethyl)-3-(trifluoromethyl)pyrazol-4-yl]imidazo[1,2-a]pyrazin-8-yl]amino]-2-fluoro-6-methylbenzamide] | 120 nM
C=CCn1cc(-c2cnc3c(Nc4ccc(C(=O)N5CCC(CN)CC5)c(CC)c4)nccn23)c(C(F)(F)F)n1 [Example 53, [4-(aminomethyl)piperidin-1-yl]-[2-ethyl-4-[[3-[1-prop-2-enyl-3-(trifluoromethyl)pyrazol-4-yl]imidazo[1,2-a]pyrazin-8-yl]amino]phenyl] methanone] | 157 nM
CCc1cc(Nc2nccn3c(-c4cn(CCF)nc4C(F)(F)F)cnc23)ccc1C(=O)NCCOCC(C)(C)N [Example 54, N-[2-(2-amino-2-methylpropoxy)ethyl]-2-ethyl-4-[[3-[1-(2-fluoroethyl)-3-(trifluoromethyl)pyrazol-4-yl]imidazo[1,2-a]pyrazin-8-yl]amino]benzamide] | 162 nM
C#CCn1cc(-c2cnc3c(Nc4ccc(C(=O)N[C@@H](C)CN)c(CC)c4)nccn23)c(C(F)(F)F)n1 [Example 55, N-[(2S)-1-aminopropan-2-yl]-2-ethyl-4-[[3-[1-prop-2-ynyl-3-(trifluoromethyl)pyrazol-4-yl]imidazo[1,2-a]pyrazin-8-yl]amino]benzamide] | 167 nM
CCc1cc(Nc2nccn3c(-c4cn(CCF)nc4C(F)(F)F)cnc23)ccc1C(=O)NCCCN [Example 56, N-(3-aminopropyl)-2-ethyl-4-[[3-[1-(2-fluoroethyl)-3-(trifluoromethyl)pyrazol-4-yl]imidazo[1,2-a]pyrazin-8-yl]amino]benzamide] | 194 nM
CCc1cc(Nc2nccn3c(-c4cn(CC(F)F)nc4C(F)(F)F)cnc23)ccc1C(=O)N[C@@H](C)CN [Example 57, N-[(2S)-1-aminopropan-2-yl]-4-[[3-[1-(2,2-difluoroethyl)-3-(trifluoromethyl)pyrazol-4-yl]imidazo[1,2-a]pyrazin-8-yl]amino]-2-ethylbenzamide] | 202 nM
CCc1cc(Nc2nccn3c(-c4cn(CC(F)F)nc4C(F)(F)F)cnc23)ccc1C(=O)N1CCC(CN)CC1 [Example 58, [4-(aminomethyl)piperidin-1-yl]-[4-[[3-[1-(2,2-difluoroethyl)-3-(trifluoromethyl)pyrazol-4-yl]imidazo[1,2-a]pyrazin-8-yl]amino]-2-ethylphenyl] methanone] | 209 nM
CCc1cc(Nc2nccn3c(-c4cn(CC#N)nc4C(F)(F)F)cnc23)ccc1C(=O)NCCOCC(C)(C)N [Example 60, N-[2-(2-amino-2-methylpropoxy)ethyl]-4-[[3-[1-(cyanomethyl)-3-(trifluoromethyl)pyrazol-4-yl]imidazo[1,2-a]pyrazin-8-yl]amino]-2-ethylbenzamide] | 230 nM
CCc1cc(Nc2nccn3c(-c4cn(CCF)nc4C(F)(F)F)cnc23)ccc1C(=O)N1CCC(CN)CC1 [Example 62, [4-(aminomethyl)piperidin-1-yl]-[2-ethyl-4-[[3-[1-(2-fluoroethyl)-3-(trifluoromethyl)pyrazol-4-yl]imidazo[1,2-a]pyrazin-8-yl]amino]phenyl] methanone] | 242 nM
CCc1cc(Nc2nccn3c(-c4cn(CCF)nc4C(F)(F)F)cnc23)ccc1C(=O)N[C@@H](C)CN [Example 65, N-[(2S)-1-aminopropan-2-yl]-2-ethyl-4-[[3-[1-(2-fluoroethyl)-3-(trifluoromethyl)pyrazol-4-yl]imidazo[1,2-a]pyrazin-8-yl]amino]benzamide] | 339 nM

Next, values leading:

IC90 | Structure (SMILES)
1950 nM | C#CCNC(=O)c1c(C)cc(Nc2nccn3c(-c4c[nH]nc4C(F)(F)F)cnc23)cc1F [Example 43, 2-fluoro-6-methyl-N-prop-2-ynyl-4-[[3-[3-(trifluoromethyl)-1H-pyrazol-4-yl]imidazo[1,2-a]pyrazin-8-yl]amino]benzamide]
59 nM | C#CCn1cc(-c2cnc3c(Nc4ccc(C(=O)NCCOCC(C)(C)N)c(CC)c4)nccn23)c(C(F)(F)F)n1 [Example 44, N-[2-(2-amino-2-methylpropoxy)ethyl]-2-ethyl-4-[[3-[1-prop-2-ynyl-3-(trifluoromethyl)pyrazol-4-yl]imidazo[1,2-a]pyrazin-8-yl]amino]benzamide]
121 nM | CCc1cc(Nc2nccn3c(-c4cn(CC(F)F)nc4C(F)(F)F)cnc23)ccc1C(=O)NCCOCC(C)(C)N [Example 50, N-[2-(2-amino-2-methylpropoxy)ethyl]-4-[[3-[1-(2,2-difluoroethyl)-3-(trifluoromethyl)pyrazol-4-yl]imidazo[1,2-a]pyrazin-8-yl]amino]-2-ethylbenzamide]
144 nM | CCc1cc(Nc2nccn3c(-c4cn(CC(F)F)nc4C(F)(F)F)cnc23)ccc1C(=O)NCCCN [Example 52, N-(3-aminopropyl)-4-[[3-[1-(2,2-difluoroethyl)-3-(trifluoromethyl)pyrazol-4-yl]imidazo[1,2-a]pyrazin-8-yl]amino]-2-ethylbenzamide]
232 nM | Cc1cc(Nc2nccn3c(-c4cn(CCF)nc4C(F)(F)F)cnc23)cc(F)c1C(=O)NCCOCCN [Example 61, N-[2-(2-aminoethoxy)ethyl]-2-fluoro-4-[[3-[1-(2-fluoroethyl)-3-(trifluoromethyl)pyrazol-4-yl]imidazo[1,2-a]pyrazin-8-yl]amino]-6-methylbenzamide]
270 nM | C=CCn1cc(-c2cnc3c(Nc4ccc(C(=O)N[C@@H](C)CN)c(CC)c4)nccn23)c(C(F)(F)F)n1 [Example 63, N-[(2S)-1-aminopropan-2-yl]-2-ethyl-4-[[3-[1-prop-2-enyl-3-(trifluoromethyl)pyrazol-4-yl]imidazo[1,2-a]pyrazin-8-yl]amino]benzamide]
306 nM | C=CCn1cc(-c2cnc3c(Nc4ccc(C(=O)N5CCN(C(=O)C6CCNCC6)CC5)c(CC)c4)nccn23)c(C(F)(F)F)n1 [Example 64, [2-ethyl-4-[[3-[1-prop-2-enyl-3-(trifluoromethyl)pyrazol-4-yl]imidazo[1,2-a]pyrazin-8-yl]amino]phenyl]-[4-(piperidine-4-carbonyl)piperazin-1-yl]methanone]
413 nM | C#CCn1cc(-c2cnc3c(Nc4cc(C)c(C(=O)N5CCNCC5)c(F)c4)nccn23)c(C(F)(F)F)n1 [Example 67, [2-fluoro-6-methyl-4-[[3-[1-prop-2-ynyl-3-(trifluoromethyl)pyrazol-4-yl]imidazo[1,2-a]pyrazin-8-yl]amino]phenyl]-piperazin-1-ylmethanone]

Same assay, conditions: strain ATCC 17961, OD600 growth over 16 h, read-out: A. baumannii ATCC 17961 IC90

Structure (SMILES) | IC90
C#CCNCCCNC(=O)c1c(C)cc(Nc2nccn3c(-c4cn(CC=C)nc4C(F)(F)F)cnc23)cc1F [Example 66, 2-fluoro-6-methyl-4-[[3-[1-prop-2-enyl-3-(trifluoromethyl)pyrazol-4-yl]imidazo[1,2-a]pyrazin-8-yl]amino]-N-[3-(prop-2-ynylamino)propyl] benzamide] | 379 nM
C#CCNCCCNC(=O)c1c(C)cc(Nc2nccn3c(-c4cn(CC(F)F)nc4C(F)(F)F)cnc23)cc1F [Example 68, 4-[[3-[1-(2,2-difluoroethyl)-3-(trifluoromethyl)pyrazol-4-yl]imidazo[1,2-a]pyrazin-8-yl]amino]-2-fluoro-6-methyl-N-[3-(prop-2-ynylamino)propyl] benzamide] | 430 nM

Continued, values first:

IC90 | Structure (SMILES)
74 nM | C=CCn1cc(-c2cnc3c(Nc4ccc(C(=O)NCCOCC(C)(C)N)c(CC)c4)nccn23)c(C(F)(F)F)n1 [Example 45, N-[2-(2-amino-2-methylpropoxy)ethyl]-2-ethyl-4-[[3-[1-prop-2-enyl-3-(trifluoromethyl)pyrazol-4-yl]imidazo[1,2-a]pyrazin-8-yl]amino] benzamide]
105 nM | C#CCn1cc(-c2cnc3c(Nc4ccc(C(=O)NCCCN)c(CC)c4)nccn23)c(C(F)(F)F)n1 [Example 47, N-(3-aminopropyl)-2-ethyl-4-[[3-[1-prop-2-ynyl-3-(trifluoromethyl)pyrazol-4-yl]imidazo[1,2-a]pyrazin-8-yl]amino] benzamide]
117 nM | C=CCn1cc(-c2cnc3c(Nc4ccc(C(=O)NCCCN)c(CC)c4)nccn23)c(C(F)(F)F)n1 [Example 48, N-(3-aminopropyl)-2-ethyl-4-[[3-[1-prop-2-enyl-3-(trifluoromethyl)pyrazol-4-yl]imidazo[1,2-a]pyrazin-8-yl]amino] benzamide]
130 nM | C=CCn1cc(-c2cnc3c(Nc4cc(C)c(C(=O)NCCOCCN)c(F)c4)nccn23)c(C(F)(F)F)n1 [Example 51, N-[2-(2-aminoethoxy)ethyl]-2-fluoro-6-methyl-4-[[3-[1-prop-2-enyl-3-(trifluoromethyl)pyrazol-4-yl]imidazo[1,2-a]pyrazin-8-yl]amino] benzamide]
216 nM | C#CCn1cc(-c2cnc3c(Nc4cc(C)c(C(=O)NCCOCCN)c(F)c4)nccn23)c(C(F)(F)F)n1 [Example 59, N-[2-(2-aminoethoxy)ethyl]-2-fluoro-6-methyl-4-[[3-[1-prop-2-ynyl-3-(trifluoromethyl)pyrazol-4-yl]imidazo[1,2-a]pyrazin-8-yl]amino] benzamide]
